Reference: PubChem BioAssay (NCI)
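GI50 = concentration required for 50% inhibition of growth. The concentration for full growth arrest is given as TGI.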

How the values were obtained:
Experiment in all cases: NCI tumour cell line growth inhibition, 384-well format
SR leukemia = system: SR leukemia
DU-145 prostate = system: DU-145 prostate
OVCAR-8 ovarian = system: OVCAR-8 ovarian
SK-MEL-28 melanoma = system: SK-MEL-28 melanoma
MALME-3M melanoma = system: MALME-3M melanoma
HCT-116 colon = system: HCT-116 colon
HT29 colon = system: HT29 colon
KM12 colon = system: KM12 colon
UACC-62 melanoma = system: UACC-62 melanoma
HCT-15 colon = system: HCT-15 colon
HCC-2998 colon = system: HCC-2998 colon
T-47D breast = system: T-47D breast
NCI-H226 lung = system: NCI-H226 lung
SF-268 CNS = system: SF-268 CNS
SNB-19 CNS = system: SNB-19 CNS
IGROV1 ovarian = system: IGROV1 ovarian
HOP-92 NSCLC = system: HOP-92 NSCLC
A549 NSCLC = system: A549 NSCLC
NCI/ADR-RES ovarian = system: NCI/ADR-RES ovarian
ACHN renal = system: ACHN renal
HL-60(TB) leukemia = system: HL-60(TB) leukemia
NCI-H522 lung = system: NCI-H522 lung
LOX IMVI melanoma = system: LOX IMVI melanoma
SK-MEL-2 melanoma = system: SK-MEL-2 melanoma
786-0 renal = system: 786-0 renal
M14 melanoma = system: M14 melanoma
OVCAR-4 ovarian = system: OVCAR-4 ovarian
K-562 leukemia = system: K-562 leukemia
MCF7 breast = system: MCF7 breast
NCI-H322M lung = system: NCI-H322M lung
COLO 205 colon = system: COLO 205 colon
UACC-257 melanoma = system: UACC-257 melanoma
SW-620 colon = system: SW-620 colon
RPMI-8226 leukemia = system: RPMI-8226 leukemia
MDA-MB-435 melanoma = system: MDA-MB-435 melanoma
UO-31 renal = system: UO-31 renal
SN12C renal = system: SN12C renal
RXF 393 renal = system: RXF 393 renal
SK-MEL-5 melanoma = system: SK-MEL-5 melanoma
SF-295 CNS = system: SF-295 CNS
SF-539 CNS = system: SF-539 CNS
NCI-H460 NSCLC = system: NCI-H460 NSCLC
U251 glioblastoma = system: U251 glioblastoma
OVCAR-5 ovarian = system: OVCAR-5 ovarian
MDA-MB-468 breast = system: MDA-MB-468 breast
NCI-H23 lung = system: NCI-H23 lung
TK-10 renal = system: TK-10 renal
CAKI-1 renal = system: CAKI-1 renal
CCRF-CEM leukemia = system: CCRF-CEM leukemia
SK-OV-3 ovarian = system: SK-OV-3 ovarian
BT-549 breast = system: BT-549 breast
MOLT-4 leukemia = system: MOLT-4 leukemia
A498 renal = system: A498 renal
OVCAR-3 ovarian = system: OVCAR-3 ovarian
HOP-62 NSCLC = system: HOP-62 NSCLC
MDA-MB-231 breast = system: MDA-MB-231 breast
PC-3 prostate = system: PC-3 prostate

In the case of `C[C@H](Nc1cc(Cl)nc2c1cnn2[C@@H]1O[C@H](COP(=O)(O)CP(=O)(O)O)[C@@H](O)[C@H]1O)c1ccccc1F`, the GI50 (SR leukemia) is reported as 47.9 µM, the TGI (SR leukemia) is reported as > 100 µM and the GI50 (DU-145 prostate) is reported as > 100 µM. The TGI (DU-145 prostate) was > 100 µM, the GI50 (OVCAR-8 ovarian) was > 100 µM and the TGI (OVCAR-8 ovarian) was > 100 µM. The GI50 (SK-MEL-28 melanoma) was > 100 µM, the TGI (SK-MEL-28 melanoma) was > 100 µM and the GI50 (MALME-3M melanoma) was > 100 µM. The TGI (MALME-3M melanoma) was > 100 µM, the GI50 (HCT-116 colon) was > 100 µM and the TGI (HCT-116 colon) was > 100 µM. The GI50 (HT29 colon) was > 100 µM, the TGI (HT29 colon) was > 100 µM and the GI50 (KM12 colon) was > 100 µM. For the same compound, the TGI (KM12 colon) was > 100 µM, the GI50 (UACC-62 melanoma) was > 100 µM and the TGI (UACC-62 melanoma) was > 100 µM. The GI50 (HCT-15 colon) was > 100 µM, the TGI (HCT-15 colon) was > 100 µM and the GI50 (HCC-2998 colon) was 72.9 µM. The TGI (HCC-2998 colon) was > 100 µM, the GI50 (T-47D breast) was 80.7 µM and the TGI (T-47D breast) was > 100 µM. The GI50 (NCI-H226 lung) was 56.6 µM, the TGI (NCI-H226 lung) was > 100 µM and the GI50 (SF-268 CNS) was > 100 µM. For the same compound, the TGI (SF-268 CNS) was > 100 µM, the GI50 (SNB-19 CNS) was > 100 µM and the TGI (SNB-19 CNS) was > 100 µM. The GI50 (IGROV1 ovarian) was > 100 µM, the TGI (IGROV1 ovarian) was > 100 µM and the GI50 (HOP-92 NSCLC) was > 100 µM. The TGI (HOP-92 NSCLC) was > 100 µM, the GI50 (A549 NSCLC) was 80.5 µM and the TGI (A549 NSCLC) was > 100 µM. The GI50 (NCI/ADR-RES ovarian) was > 100 µM, the TGI (NCI/ADR-RES ovarian) was > 100 µM and the GI50 (ACHN renal) was > 100 µM. The TGI (ACHN renal) was > 100 µM, the GI50 (HL-60(TB) leukemia) was > 100 µM and the TGI (HL-60(TB) leukemia) was > 100 µM. The GI50 (NCI-H522 lung) was > 100 µM, the TGI (NCI-H522 lung) was > 100 µM and the GI50 (LOX IMVI melanoma) was > 100 µM. For the same compound, the TGI (LOX IMVI melanoma) was > 100 µM, the GI50 (SK-MEL-2 melanoma) was 99.6 µM and the TGI (SK-MEL-2 melanoma) was > 100 µM. For the same compound, the GI50 ([…]-0 renal) was > 100 µM, the TGI (786-0 renal) was > 100 µM and the GI50 (M14 melanoma) was > 100 µM. The TGI (M14 melanoma) was > 100 µM, the GI50 (OVCAR-4 ovarian) was 50.6 µM and the TGI (OVCAR-4 ovarian) was > 100 µM. For the same compound, the GI50 (K-562 leukemia) was > 100 µM, the TGI (K-562 leukemia) was > 100 µM and the GI50 (MCF7 breast) was > 100 µM. For the same compound, the TGI (MCF7 breast) was > 100 µM, the GI50 (NCI-H322M lung) was > 100 µM and the TGI (NCI-H322M lung) was > 100 µM. The GI50 (COLO 205 colon) was > 100 µM, the TGI (COLO 205 colon) was > 100 µM and the GI50 (UACC-257 melanoma) was > 100 µM. The TGI (UACC-257 melanoma) was > 100 µM, the GI50 (SW-620 colon) was > 100 µM and the TGI (SW-620 colon) was > 100 µM. The GI50 (RPMI-8226 leukemia) was 8.19 µM, the TGI (RPMI-8226 leukemia) was 40.9 µM and the GI50 (MDA-MB-435 melanoma) was > 100 µM. The TGI (MDA-MB-435 melanoma) was > 100 µM, the GI50 (UO-31 renal) was > 100 µM and the TGI (UO-31 renal) was > 100 µM. For the same compound, the GI50 (SN12C renal) was 70.8 µM, the TGI (SN12C renal) was > 100 µM and the GI50 (RXF 393 renal) was 28.5 µM. For the same compound, the TGI (RXF 393 renal) was > 100 µM, the GI50 (SK-MEL-5 melanoma) was > 100 µM and the TGI (SK-MEL-5 melanoma) was > 100 µM. For the same compound, the GI50 (SF-295 CNS) was > 100 µM, the TGI (SF-295 CNS) was > 100 µM and the GI50 (SF-539 CNS) was 49.9 µM. The TGI (SF-539 CNS) was > 100 µM, the GI50 (NCI-H460 NSCLC) was > 100 µM and the TGI (NCI-H460 NSCLC) was > 100 µM. The GI50 (U251 glioblastoma) was > 100 µM, the TGI (U251 glioblastoma) was > 100 µM and the GI50 (OVCAR-5 ovarian) was > 100 µM. The TGI (OVCAR-5 ovarian) was > 100 µM, the GI50 (MDA-MB-468 breast) was > 100 µM and the TGI (MDA-MB-468 breast) was > 100 µM. For the same compound, the GI50 (NCI-H23 lung) was 67.3 µM, the TGI (NCI-H23 lung) was > 100 µM and the GI50 (TK-10 renal) was > 100 µM. The TGI (TK-10 renal) was > 100 µM, the GI50 (CAKI-1 renal) was > 100 µM and the TGI (CAKI-1 renal) was > 100 µM. The GI50 (CCRF-CEM leukemia) was 42.4 µM, the TGI (CCRF-CEM leukemia) was > 100 µM and the GI50 (SK-OV-3 ovarian) was 73.8 µM. The TGI (SK-OV-3 ovarian) was > 100 µM, the GI50 (BT-549 breast) was 50.6 µM and the TGI (BT-549 breast) was > 100 µM. The GI50 (MOLT-4 leukemia) was 58.8 µM, the TGI (MOLT-4 leukemia) was > 100 µM and the GI50 (A498 renal) was 62.1 µM. For the same compound, the TGI (A498 renal) was > 100 µM, the GI50 (OVCAR-3 ovarian) was > 100 µM and the TGI (OVCAR-3 ovarian) was > 100 µM. For the same compound, the GI50 (HOP-62 NSCLC) was > 100 µM, the TGI (HOP-62 NSCLC) was > 100 µM and the GI50 (MDA-MB-231 breast) was > 100 µM. For the same compound, the TGI (MDA-MB-231 breast) was > 100 µM, the GI50 (PC-3 prostate) was > 100 µM and the TGI (PC-3 prostate) was > 100 µM.
